Assays:
cyclooxygenase 1 (COX-1) = cyclooxygenase 1 (COX-1) (Homo sapiens, UniProt P23219); assay: fluorimetric ADHP/resorufin assay; type: biochemical; conditions: read-out: % inhibition at 20 μM
cyclooxygenase 2 (COX-2) = biological target: T1, cyclooxygenase 2 (COX-2) (Homo sapiens, UniProt P35354); assay: fluorimetric ADHP/resorufin assay; type: biochemical; conditions: read-out: % inhibition at 20 μM
T1 sequence (P35354 18-604): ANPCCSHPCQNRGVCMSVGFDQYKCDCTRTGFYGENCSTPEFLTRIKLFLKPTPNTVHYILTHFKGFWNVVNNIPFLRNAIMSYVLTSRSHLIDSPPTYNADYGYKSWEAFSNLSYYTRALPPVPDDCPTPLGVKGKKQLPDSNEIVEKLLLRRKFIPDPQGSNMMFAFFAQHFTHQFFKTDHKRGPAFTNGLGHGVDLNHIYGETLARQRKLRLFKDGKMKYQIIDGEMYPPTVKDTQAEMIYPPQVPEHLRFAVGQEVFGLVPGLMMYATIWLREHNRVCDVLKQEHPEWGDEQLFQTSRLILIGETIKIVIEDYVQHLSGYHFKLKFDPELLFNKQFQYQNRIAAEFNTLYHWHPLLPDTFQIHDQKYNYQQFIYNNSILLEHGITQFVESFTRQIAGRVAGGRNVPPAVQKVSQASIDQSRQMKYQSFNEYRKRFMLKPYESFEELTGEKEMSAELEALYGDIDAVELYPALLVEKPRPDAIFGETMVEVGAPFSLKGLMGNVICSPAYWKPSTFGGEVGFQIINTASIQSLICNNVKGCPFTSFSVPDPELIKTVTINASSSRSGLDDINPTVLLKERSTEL

Chain of cyclooxygenase 1 (COX-1) (P23219 24-599): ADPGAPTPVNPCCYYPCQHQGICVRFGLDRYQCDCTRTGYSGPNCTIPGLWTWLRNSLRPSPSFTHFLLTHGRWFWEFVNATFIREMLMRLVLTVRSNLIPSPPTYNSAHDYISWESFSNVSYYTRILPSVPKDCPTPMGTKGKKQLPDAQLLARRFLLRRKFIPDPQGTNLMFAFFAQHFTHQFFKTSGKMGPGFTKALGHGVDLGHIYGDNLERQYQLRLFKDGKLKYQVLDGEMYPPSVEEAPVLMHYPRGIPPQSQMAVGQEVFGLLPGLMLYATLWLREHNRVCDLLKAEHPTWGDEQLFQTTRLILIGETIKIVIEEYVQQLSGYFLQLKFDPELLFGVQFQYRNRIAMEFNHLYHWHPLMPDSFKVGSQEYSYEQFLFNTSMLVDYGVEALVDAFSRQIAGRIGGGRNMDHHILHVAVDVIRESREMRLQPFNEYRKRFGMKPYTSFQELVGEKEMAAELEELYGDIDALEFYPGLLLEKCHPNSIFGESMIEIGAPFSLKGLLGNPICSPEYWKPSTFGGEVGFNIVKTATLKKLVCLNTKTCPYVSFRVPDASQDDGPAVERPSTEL

inhibition at 20 µM (cyclooxygenase 1 (COX-1)): 61%
inhibition at 20 µM (cyclooxygenase 2 (COX-2)): 13%
SMILES: Cc1cccc(-c2n[nH]cc2-c2ccc3ncccc3n2)n1 [RepSox]

Source: paper doi:10.1101/2024.09.04.611205v1 (biorxiv, 2024)
